# From patent publication US20200399262A1, “COMPOUNDS FOR INHIBITING PROTEIN DEGRADATION AND METHODS OF USE THEREOF IN THE TREATMENT OF CANCER” (PI Therapeutics Ltd, priority 2018, published 2020)
# Tests used:
# Assay in all cases: Cell viability panel, ATPlite 1Step
# Assay type in all cases: cell-based
# [1] = test system: A375; conditions: Homo sapiens, A-375, Amelanotic melanoma, 72 h exposure, read-out: Compound EC50
# Experimental: (§1) Cell viability panel studies. Cells were diluted in the corresponding ATCC recommended medium and dispensed in a 384-well plate, depending on the cell line used, at a density of 200-6400 cells per well. For each used cell line, the optimal cell density was used. Compound was serially diluted and 8 concentration (0.04-32 μM) were added to the cells for 72 h exposure. At t=end, of ATPlite 1Step™ (PerkinElmer) were used to calculate cell viability. Cell lines marked with asterisk were seeded 24 h prior to treatment in 96-well plates at the density range of 5,000-40,000 cells/well, according to duplication rate, in RPMI 1640 medium containing 10% fetal bovine serum and 2 mM L-glutamine. Compounds were diluted from 10 mM DMSO stock and treatment was applied at the range of 0.04-1 μM. Following incubation at 37° C. for 48 hours with increasing concentrations of the compounds, viability was determined with CyQUANT® Direct Assay Kit (Invitrogen). Output intensities were normalized to values after treatment with DMSO alone, and EC50 values were calculated using the absorbance measurements [time zero, (Tz), growth control, (C), plus the test growth at the four drug concentration levels (Ti)] as follows: [(Ti−Tz)/(C−Tz)]×100 for concentrations for which Ti>/=Tz; [(Ti−Tz)/Tz]×100 for concentrations for which Ti−<Tz.
# [2] = test system: Jurkat E6.1; conditions: Homo sapiens, T acute lymphoblastic leukemia, 72 h exposure, read-out: Compound EC50
# Experimental: as §1
# [3] = test system: SR; conditions: Homo sapiens, Anaplastic large cell lymphoma, 72 h exposure, read-out: Compound EC50
# Experimental: as §1
# [4] = test system: KU812; conditions: Homo sapiens, Chronic myelogenous leukemia, 72 h exposure, read-out: Compound EC50
# Experimental: as §1
# [5] = test system: T24; conditions: Homo sapiens, T-24, Bladder carcinoma, 72 h exposure, read-out: Compound EC50
# Experimental: as §1
# [6] = test system: SW982; conditions: Homo sapiens, Biphasic synovial sarcoma, 72 h exposure, read-out: Compound EC50
# Experimental: as §1
# [7] = test system: DoTc2 4510; conditions: Homo sapiens, Cervical carcinoma, 72 h exposure, read-out: Compound EC50
# Experimental: as §1
# [8] = test system: A-172; conditions: Homo sapiens, Glioblastoma, 72 h exposure, read-out: Compound EC50
# Experimental: as §1
# [9] = test system: 769-P; conditions: Homo sapiens, Renal cell carcinoma, 72 h exposure, read-out: Compound EC50
# Experimental: as §1
# [10] = test system: A-498; conditions: Homo sapiens, A498, Renal cell carcinoma, 72 h exposure, read-out: Compound EC50
# Experimental: as §1
# [11] = test system: PA-1; conditions: Homo sapiens, Ovarian mixed germ cell tumor, 72 h exposure, read-out: Compound EC50
# Experimental: as §1
# [12] = test system: RD; conditions: Homo sapiens, Embryonal rhabdomyosarcoma, 72 h exposure, read-out: Compound EC50
# Experimental: as §1
# [13] = test system: CCRF-CEM; conditions: Homo sapiens, T acute lymphoblastic leukemia, 72 h exposure, read-out: Compound EC50
# Experimental: as §1
# [14] = test system: MeWo; conditions: Homo sapiens, Melanoma, 72 h exposure, read-out: Compound EC50
# Experimental: as §1
# [15] = test system: OVCAR-3; conditions: Homo sapiens, High grade ovarian serous adenocarcinoma, 72 h exposure, read-out: Compound EC50
# Experimental: as §1
# [16] = test system: SU-DHL-1; conditions: Homo sapiens, Anaplastic large cell lymphoma, 72 h exposure, read-out: Compound EC50
# Experimental: as §1
# [17] = test system: TCCSUP; conditions: Homo sapiens, TCC-SUP, Bladder carcinoma, 72 h exposure, read-out: Compound EC50
# Experimental: as §1
# [18] = test system: LS 174T; conditions: Homo sapiens, LS174T, Colon adenocarcinoma, 72 h exposure, read-out: Compound EC50
# Experimental: as §1
# [19] = test system: A-549; conditions: Homo sapiens, A549, Lung adenocarcinoma, 72 h exposure, read-out: Compound EC50
# Experimental: as §1
# [20] = test system: LoVo; conditions: Homo sapiens, Colon adenocarcinoma, 72 h exposure, read-out: Compound EC50
# Experimental: as §1
# [21] = test system: THP-1; conditions: Homo sapiens, Acute monocytic leukemia, 72 h exposure, read-out: Compound EC50
# Experimental: as §1
# [22] = test system: SK-N-FI; conditions: Homo sapiens, Neuroblastoma, 72 h exposure, read-out: Compound EC50
# Experimental: as §1
# [23] = test system: SW900; conditions: Homo sapiens, Squamous cell lung carcinoma, 72 h exposure, read-out: Compound EC50
# Experimental: as §1
# [24] = test system: A-427; conditions: Homo sapiens, Lung adenocarcinoma, 72 h exposure, read-out: Compound EC50
# Experimental: as §1
# [25] = test system: AsPC-1; conditions: Homo sapiens, ASPC1, Pancreatic ductal adenocarcinoma, 72 h exposure, read-out: Compound EC50
# Experimental: as §1
# [26] = test system: SW48; conditions: Homo sapiens, Colon adenocarcinoma, 72 h exposure, read-out: Compound EC50
# Experimental: as §1
# [27] = test system: PFSK-1; conditions: Homo sapiens, Primitive neuroectodermal tumor, 72 h exposure, read-out: Compound EC50
# Experimental: as §1
# [28] = test system: T98G; conditions: Homo sapiens, Glioblastoma, 72 h exposure, read-out: Compound EC50
# Experimental: as §1
# [29] = test system: SW872; conditions: Homo sapiens, Liposarcoma, 72 h exposure, read-out: Compound EC50
# Experimental: as §1
# [30] = test system: CAL 27; conditions: Homo sapiens, Tongue squamous cell carcinoma, 72 h exposure, read-out: Compound EC50
# Experimental: as §1
structure (smiles),measurement,setting,value
CN(C)CCCS(=O)(=O)N1C/C(=C\c2ccc(C#N)cc2)C(=O)/C(=C/c2ccc(C#N)cc2)C1 [Compound AA],EC50,[1],< 300 nM
same,EC50,[2],< 300 nM
same,EC50,[3],< 300 nM
same,EC50,[4],< 300 nM
same,EC50,[5],< 300 nM
same,EC50,[6],< 300 nM
same,EC50,[7],< 300 nM
same,EC50,[8],< 300 nM
same,EC50,[9],< 300 nM
same,EC50,[10],300 to 1000 nM
same,EC50,[11],< 300 nM
same,EC50,[12],< 300 nM
same,EC50,[13],< 300 nM
same,EC50,[14],300 to 1000 nM
same,EC50,[15],300 to 1000 nM
same,EC50,[16],< 300 nM
same,EC50,[17],< 300 nM
same,EC50,[18],< 300 nM
same,EC50,[19],≥ 1000 nM
same,EC50,[20],< 300 nM
same,EC50,[21],300 to 1000 nM
same,EC50,[22],< 300 nM
same,EC50,[23],300 to 1000 nM
same,EC50,[24],< 300 nM
same,EC50,[25],300 to 1000 nM
same,EC50,[26],300 to 1000 nM
same,EC50,[27],< 300 nM
same,EC50,[28],300 to 1000 nM
same,EC50,[29],< 300 nM
same,EC50,[30],< 300 nM
